From ChEMBL document CHEMBL1123631, “Synthesis and gastrointestinal pharmacology of the 4-fluoro analogue of enisoprost” (1987) come the findings set out here.

SMILES strings stand for the structures.

Holding throughout (type): functional
For one assay, the species on record is Rattus norvegicus. In words: Mucosal protective activity in rats was measured as minimum effective dose (MED); ig. To be noted: po, read-out: MED.
Assay [1] concerns Canis familiaris. In words: Gastric antisecretory activity was determined in food stimulated Pavlov dogs by intrapouch administration ig; Value ranges from 6.2-15.3. To be noted: Canis lupus familiaris.
Assay [2] concerns Canis familiaris. In words: Gastric antisecretory activity was determined in food stimulated Pavlov dogs by intrapouch administration ig; Value ranges from 0.017-0.032. Particulars: Canis lupus familiaris.

The ED50 is the midpoint of the dose-response relation.

In the case of `CCCCC(C)(O)C/C=C/[C@H]1[C@H](O)CC(=O)[C@@H]1CC/C=C(/F)CCC(=O)OC` (some centres undefined), the minimal effective dose in the assay filed under Rattus norvegicus amounted to 50 µg/kg. In the assay with Canis familiaris [1], the ED50 was 9.7 µg/kg.

With `CCCCC(C)(O)C/C=C/[C@H]1[C@H](O)CC(=O)[C@@H]1CC/C=C\CCC(=O)OC` (some centres undefined) [ENISOPROST], the minimal effective dose in the assay listed under Rattus norvegicus came to 1 µg/kg. For the same compound, in the assay with Canis familiaris [2], the ED50 turned out to be 0.023 µg/kg.
